Measurements taken from publication PMC6669322, “Small Molecule Binding to Alzheimer Risk Factor CD33 Promotes Aβ Phagocytosis” (iScience, 2019).

What was measured:
CD33 F21A = biological target: T1, CD33 F21A (Homo sapiens, UniProt P20138, F21A); assay: SNAP-tag homogeneous time-resolved fluorescence binding assay, CD33 F21A; conditions: binding affinity, F21A vs WT
T1 construct: human CD33 ORF (NM_001772.3), lacking its signal peptide; expressed in transfected cells; host or cells: HEK293T, transient, pT8-SNAP vector
T1 sequence (P20138 18-364 F21A): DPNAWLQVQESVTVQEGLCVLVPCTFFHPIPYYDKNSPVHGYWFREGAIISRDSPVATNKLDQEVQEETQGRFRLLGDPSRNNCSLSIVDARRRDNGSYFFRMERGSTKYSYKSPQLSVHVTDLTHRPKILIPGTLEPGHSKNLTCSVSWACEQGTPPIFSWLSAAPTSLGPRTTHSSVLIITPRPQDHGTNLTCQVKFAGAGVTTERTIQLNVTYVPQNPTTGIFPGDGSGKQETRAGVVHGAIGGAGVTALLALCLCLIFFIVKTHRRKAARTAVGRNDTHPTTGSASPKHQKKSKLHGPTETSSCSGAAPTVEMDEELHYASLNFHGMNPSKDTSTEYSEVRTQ
Experimental: (§1) We then used our structural data to design mutations of key residues interacting with P22 to assess which interactions were the most important for binding affinity. The residues were mutated into alanine, and the effect of these mutations on P22 binding affinity was assessed using a SNAP-tag homogeneous time-resolved fluorescence binding assay (see Transparent Methods and Figures 3E–3G). The R119A mutation, which destroys the salt bridge between P22 and CD33, was one of the most detrimental to binding (>30-fold loss) (Figure 2C and Table S4). […]
(§2) HEK293T cells were cultured in DMEM (ThermoFisher Scientific # 11965092) containing 10% FBS (Hyclone # SH30070.03) and 1% Penicillin-Streptomycin (ThermoFisher Scientific # 15140122) and transfected using Fugene HD (Promega # E2312) in 10 cm plates. […] The cells were counted, centrifuged and resuspended in PBS at a concentration of 1,000 cells/μL and 10 μL were plated into each well. […] Non-specific binding was assessed by competition with 100 μM of the non-labeled P22, as well as in control (Snap-tagged dopamine D2R receptor)-transfected cells.
(§3) Fluorescence was read with a PHERAstar plate reader using an excitation of 337 nm and emissions of 620 and 665 nm. […]

CD33 S131A = biological target: T2, CD33 S131A (Homo sapiens, UniProt P20138, S131A); assay: SNAP-tag homogeneous time-resolved fluorescence binding assay, CD33 S131A; conditions: S131 mutated to alanine, in words
T2 construct: human CD33 ORF (NM_001772.3), lacking its signal peptide; expressed in transfected cells; host or cells: HEK293T, transient, pT8-SNAP vector
T2 sequence (P20138 18-364 S131A): as the sequence (P20138 18-364 F21A) above, with A4F, S114A counted along it
Experimental: as §1, §2, §3

CD33 H45A = biological target: T3, CD33 H45A (Homo sapiens, UniProt P20138, H45A); assay: SNAP-tag homogeneous time-resolved fluorescence binding assay, CD33 H45A; conditions: H45 mutated to alanine, in words
T3 construct: human CD33 ORF (NM_001772.3), lacking its signal peptide; expressed in transfected cells; host or cells: HEK293T, transient, pT8-SNAP vector
T3 sequence (P20138 18-364 H45A): as the sequence (P20138 18-364 F21A) above, with A4F, H28A counted along it
Experimental: as §1, §2, §3

## Cc1cc(C(=O)NC[C@@H](O)[C@@H](O)[C@@H]2O[C@@](OC[C@H]3O[C@@H](O[C@H]4[C@H](O)[C@@H](O)[C@H](OCCN)O[C@@H]4CO)[C@H](O)[C@@H](O)[C@H]3O)(C(=O)O)C[C@H](O)[C@H]2NC(=O)Cn2cc(C3CCCCC3)nn2)cc(C)c1O [P22, β-D-Glucopyranoside, 2-aminoethyl O-[N-[2-(4-cyclohexyl-1H-1,2,3-triazol-1-yl)acetyl]-9-deoxy-9-[(4-hydroxy-3,5-dimethylbenzoyl)amino]-α-neuraminosyl] (2→6)-O-β-D-galactopyranosyl-(1→4)-]
CD33 F21A
  Fold-decrease compared to WT: 6 fold
CD33 S131A
  impact of mutation on P22 binding affinity: little to no significant impact
CD33 H45A
  impact of mutation on P22 binding affinity: little to no significant impact
